This note sets out measurements from PubChem BioAssay AID651892 (Broad Institute, 2012).

The test system of the assay is L. donovani axenic amastigotes, Alamar Blue fluorescence, 72 h. The assay is described as follows: antileishmanial activity on axenic amastigotes – plate reader, dry powder, dose response (AID 651892).

Each structure is given as a SMILES string. Active and inactive are the calls of the source.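 Rule for the calls: active = IC50 below three times the IC50 of the reference antileishmanial control drug; inactive = the rest.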

Take `C[C@@H]1CN([C@@H](C)CO)C(=O)c2cccc(NC(=O)c3ccncc3)c2O[C@H]1CN(C)Cc1ccc(Oc2ccccc2)cc1`: the IC50 is 40.5 µM (inactive).
